# According to US20170128467A1, “ANTIMICROBIAL PHARMACEUTICAL COMPOSITIONS WITH MULTIPLE DRUG RESISTANCE INHIBITING PROPERTIES” (priority 2014, published 2017):
# How the values were obtained:
# Bacillus subtilis cells = assay: Growth inhibition assay in liquid medium, B. subtilis; format: cell-based; conditions: for antimicrobial activity (growth inhibition): gram-positive
# Description: (§1) Growing in the liquid medium method was selected as the method to test antibacterial activity of SkQ1. Overnight bacterial cells cultures were diluted in fresh LB media. Bacterial cell culture (5×10^6 cells/ml) were inoculated 200 μl into 96-well plates (Eppendorf, Eppendorf AG, Hamburg, Germany) and SkQ1 or CnTPP were added to reach various final concentrations in the range from 0.5 to 200 μM. Cells were left to grow for 21 hours at 37° C. Optical density at 600 nm was measured using an AnthosZenyth 3100 multimode reader (Anthos Labtec, Austria) during incubation.
# (§2) We selected Ecsherishia coli cells as a Gram-negative model organism and Bacillus subtilis cells as a Gram-positive model organism. SkQ1 was selected as a model compound of formula 1 with antioxidant moiety. To select a proper concentration of a compound of formula 1 we performed growth inhibition assays for several SkQ1 concentrations (see FIGS. 8 A and B). It can be concluded from the results of this experiment that 1 μM SkQ1 is the minimal inhibitory concentration (MIC) for B. subtilis cells.
# ΔTolC (JW5503) = assay: Growth inhibition assay, TolC deletion mutant; format: cell-based, Escherichia coli K-12; conditions: for IMPOSSIBILITY OF GROWTH: ΔTolC
# Description: as §1
# (§3) In this experiment we have tested whether To1C-dependent transporter is responsible for resistance of E. coli's cells to SkQ1. In the experiment we used single-gene knockout mutants from Keio collection [Baba T., et al., (2006)]. Construction of Escherichia coli K-12 in-frame, single-gene knockout mutants: the Keio collection. Mol. Syst. Biol. 2, 2006.0008.]. […] We used other knockout mutants of genes encoding proteins of transporters that require To1C for their function. […] In contrast, deletion of genes acrA or acrB dramatically changed the sensitivity of E. coli's cells to SkQ1.
# Table 1. Results of growth inhibition assay for deletion mutants of genes encoding To1C-required efflux pumps proteins. Deletion strains JW5503 (devoid of the to1C gene), JW0452 (devoid of the acrA gene), JW0451 (devoid of the acrB gene), JW2454 (devoid of the acrD gene), JW3233 (devoid of the acrE gene), JW3234 (devoid of the acrF gene), JW5338 (devoid of the mdtA gene), JW2060 (devoid of the mdtB gene), JW2061 (devoid of the mdtC gene), JW3481 (devoid of the mdtE gene), and JW3482 (devoid of the mdtF gene) have been described in Baba T., et al., (2006). Construction of Escherichia coli K-12 in-frame, single-gene knockout mutants: the Keio collection. Mol. Syst. Biol. 2, 2006.0008.
# [1] = tested on: S. cerevisiae W303-1A and PGAL-PDR5, PGAL-SNQ2, PGAL-YOR1 strains; assay: Survival assay (CFU) of yeast treated with C12TPP or SkQ1; format: cell-based, Saccharomyces cerevisiae; conditions: galactose-grown cells, 3 hours treatment
# Text: FIG. 1A show the chemical structure of dodecyltriphenylphosphonium C12TPP and its plastoquinone derivative (SkQ1) used in this study.
# In this example, we used W303-1A S. cerevisiae strains and its derivatives: AD1-8 with deletions of eight MDR genes [W303-1A, yor1::hisG, snq2::hisG, pdr5:shisG, pdr10::hisG, pdr11::hisG, ycf1::hisG, pdr3::hisG, pdr15::hisG][4]□, PGAL-PDR5 [W303-1A HIS3::PGAL-PDR5], PGAL-SNQ2 [W303-1A HIS3::PGAL-SNQ2], and […] [W303-1AHIS3::PGAL-YOR1](this study). Cells were grown in YPD medium (2% glucose, 1% bactopeptone, 1% yeast extract), or in YPGal (2% galactose, 1% bactopepton, 1% yeast extract). For genetic screening and maintenance of strains with conditionally expressed genes synthetic drop-out media YNB-Leu or YNB-His were used according to Sherman 2000 [5]. The growth rates were measured by increase of light scattering (λ=550 nm) in liquid yeast culture.
# Exponentially grown cells were taken and treated with indicated amounts of C12TPP or SKQ1 for 3 hours. Then cell suspensions were plated on solid YPD medium and incubated for 48 hours, the number of formed colonies were counted. 100% refers to the number of colony forming units (CFU) in yeast suspension at the beginning of experiment.
# [2] = target: T1, MDR pumps (Pdr5p) of yeast cells (Saccharomyces cerevisiae, UniProt P33302); format: cell-based; conditions: 2 μM compound
# T1 construct: We measured the efflux of R6G from intact yeast cells using fluorometric method; endogenous in cells; host or cells: S. cerevisiae W303-1A (WT); AD1-8 as MDR-negative control
# T1 sequence (P33302 whole entry): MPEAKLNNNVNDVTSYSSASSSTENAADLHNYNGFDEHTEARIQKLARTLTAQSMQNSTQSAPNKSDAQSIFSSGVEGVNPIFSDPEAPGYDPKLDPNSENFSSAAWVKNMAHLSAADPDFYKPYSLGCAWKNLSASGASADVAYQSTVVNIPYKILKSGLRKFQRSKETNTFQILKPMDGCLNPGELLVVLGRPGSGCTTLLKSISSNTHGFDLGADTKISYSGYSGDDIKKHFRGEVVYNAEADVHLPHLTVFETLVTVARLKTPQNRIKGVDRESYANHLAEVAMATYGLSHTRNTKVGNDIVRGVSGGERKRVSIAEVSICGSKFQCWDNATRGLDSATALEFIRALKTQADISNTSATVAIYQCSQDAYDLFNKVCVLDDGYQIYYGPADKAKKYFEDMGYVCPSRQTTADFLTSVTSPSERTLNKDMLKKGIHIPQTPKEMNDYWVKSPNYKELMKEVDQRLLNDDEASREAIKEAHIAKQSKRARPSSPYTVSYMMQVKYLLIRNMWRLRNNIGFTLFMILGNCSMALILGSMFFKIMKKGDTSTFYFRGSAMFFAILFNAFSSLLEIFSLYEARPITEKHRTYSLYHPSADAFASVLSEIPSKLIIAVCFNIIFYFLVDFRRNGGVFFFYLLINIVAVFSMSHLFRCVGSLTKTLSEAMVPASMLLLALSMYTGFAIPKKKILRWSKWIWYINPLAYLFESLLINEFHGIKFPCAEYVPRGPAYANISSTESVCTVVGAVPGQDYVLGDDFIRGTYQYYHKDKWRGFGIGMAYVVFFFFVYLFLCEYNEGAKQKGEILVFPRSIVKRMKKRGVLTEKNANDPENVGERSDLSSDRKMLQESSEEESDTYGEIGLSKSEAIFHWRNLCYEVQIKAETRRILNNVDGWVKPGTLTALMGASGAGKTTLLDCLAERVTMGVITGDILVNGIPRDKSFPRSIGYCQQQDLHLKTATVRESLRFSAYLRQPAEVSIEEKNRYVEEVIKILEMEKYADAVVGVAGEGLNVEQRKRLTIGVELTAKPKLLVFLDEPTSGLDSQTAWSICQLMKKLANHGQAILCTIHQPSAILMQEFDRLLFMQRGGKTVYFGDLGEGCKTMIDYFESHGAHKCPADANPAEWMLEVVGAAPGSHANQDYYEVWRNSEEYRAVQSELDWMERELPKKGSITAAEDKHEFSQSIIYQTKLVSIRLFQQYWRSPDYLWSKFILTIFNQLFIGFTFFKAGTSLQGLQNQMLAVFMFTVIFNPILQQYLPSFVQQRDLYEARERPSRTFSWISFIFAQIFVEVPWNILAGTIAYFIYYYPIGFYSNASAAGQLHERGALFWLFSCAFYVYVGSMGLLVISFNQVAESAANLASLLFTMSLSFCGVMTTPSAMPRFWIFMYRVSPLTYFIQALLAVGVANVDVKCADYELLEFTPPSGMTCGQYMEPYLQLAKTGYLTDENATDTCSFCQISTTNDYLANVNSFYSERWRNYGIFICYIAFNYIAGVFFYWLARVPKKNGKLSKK
# Description: The ordinate corresponds to the ratio of slopes in a and b.
# To measure the relative rate of rhodamine 6G efflux we used fluorometric assay implemented by Kolaczkowsky et al., with few modifications. Cells were grown overnight in 40 ml in liquid YPD to density of 0.5-1*10^7 cells/ml, washed twice with cold sterile water and resuspended in 10 ml phosphate buffer saline supplemented with 5 mM 2-deoxyglucose and 2.5 mM 2,4-dinitrophenol. Cell suspension was incubated for 45 minutes on a rotatory shaker, then the inhibitors were removed by two cycles of centrifugation/resuspension in cold water. The energy deprived cells were resuspended in 10 ml of PBS and then stained with R6G (10 μM) for 30 minutes. Then cell suspension was pelleted, resuspended in equal volume of PBS and stored on ice for 1-5 hours. The measurements of efflux were performed with FluoroMax-3 fluorometer system with exication wavelength set to 480 nm, and emission wavelength set to 560 nm. The R6G efflux was initiated by addition of 0.1% glucose, cell density in fluorometric cuvette was 10^6 cells/ml.
# ΔAcrA (JW0452) = assay: Growth inhibition assay, AcrA deletion mutant; format: cell-based, Escherichia coli K-12
# Description: as §1, §3
# (§4) Table 1. Results of growth inhibition assay for deletion mutants of genes encoding To1C-required efflux pumps proteins. […]
# E. coli = assay: Growth inhibition assay in liquid medium, E. coli; format: cell-based, Escherichia coli
# Description: as §1, §2
# ΔAcrB (JW0451) = assay: Growth inhibition assay, AcrB deletion mutant; format: cell-based, Escherichia coli K-12
# Description: as §1, §3, §4
# AcrAB-To1C transporter = target: T2, AcrAB-To1C transporter (Escherichia coli, UniProt P31224); assay: Ethidium bromide accumulation experiment; format: cell-based; conditions: SkQ1 50 μM; ethidium bromide 20 μg/ml
# T2 construct: endogenous in cells
# T2 sequence (P0AE06 25-397): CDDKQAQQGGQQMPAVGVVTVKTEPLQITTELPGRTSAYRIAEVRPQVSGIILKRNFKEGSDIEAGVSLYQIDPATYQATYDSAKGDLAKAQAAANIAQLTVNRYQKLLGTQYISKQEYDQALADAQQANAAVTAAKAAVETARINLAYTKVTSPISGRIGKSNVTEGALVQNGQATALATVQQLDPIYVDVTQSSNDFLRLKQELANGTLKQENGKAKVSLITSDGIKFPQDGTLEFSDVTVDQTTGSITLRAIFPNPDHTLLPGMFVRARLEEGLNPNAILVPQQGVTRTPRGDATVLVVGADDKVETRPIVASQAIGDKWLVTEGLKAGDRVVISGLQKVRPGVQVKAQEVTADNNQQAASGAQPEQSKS
# T2 sequence (P02930 23-493, further chain): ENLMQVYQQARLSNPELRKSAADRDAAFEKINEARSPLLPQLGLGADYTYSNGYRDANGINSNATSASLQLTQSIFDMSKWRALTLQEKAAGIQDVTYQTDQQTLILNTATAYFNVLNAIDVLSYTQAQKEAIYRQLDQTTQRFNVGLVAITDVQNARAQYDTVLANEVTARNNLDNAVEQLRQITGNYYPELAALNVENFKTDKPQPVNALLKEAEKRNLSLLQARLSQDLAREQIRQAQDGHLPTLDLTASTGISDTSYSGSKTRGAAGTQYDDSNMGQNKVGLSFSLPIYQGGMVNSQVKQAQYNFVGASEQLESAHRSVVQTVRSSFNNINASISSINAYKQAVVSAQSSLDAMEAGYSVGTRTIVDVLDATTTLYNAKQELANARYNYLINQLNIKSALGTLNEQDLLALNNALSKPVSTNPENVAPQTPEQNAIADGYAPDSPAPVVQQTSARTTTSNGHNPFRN
# T2 sequence (P31224 whole entry): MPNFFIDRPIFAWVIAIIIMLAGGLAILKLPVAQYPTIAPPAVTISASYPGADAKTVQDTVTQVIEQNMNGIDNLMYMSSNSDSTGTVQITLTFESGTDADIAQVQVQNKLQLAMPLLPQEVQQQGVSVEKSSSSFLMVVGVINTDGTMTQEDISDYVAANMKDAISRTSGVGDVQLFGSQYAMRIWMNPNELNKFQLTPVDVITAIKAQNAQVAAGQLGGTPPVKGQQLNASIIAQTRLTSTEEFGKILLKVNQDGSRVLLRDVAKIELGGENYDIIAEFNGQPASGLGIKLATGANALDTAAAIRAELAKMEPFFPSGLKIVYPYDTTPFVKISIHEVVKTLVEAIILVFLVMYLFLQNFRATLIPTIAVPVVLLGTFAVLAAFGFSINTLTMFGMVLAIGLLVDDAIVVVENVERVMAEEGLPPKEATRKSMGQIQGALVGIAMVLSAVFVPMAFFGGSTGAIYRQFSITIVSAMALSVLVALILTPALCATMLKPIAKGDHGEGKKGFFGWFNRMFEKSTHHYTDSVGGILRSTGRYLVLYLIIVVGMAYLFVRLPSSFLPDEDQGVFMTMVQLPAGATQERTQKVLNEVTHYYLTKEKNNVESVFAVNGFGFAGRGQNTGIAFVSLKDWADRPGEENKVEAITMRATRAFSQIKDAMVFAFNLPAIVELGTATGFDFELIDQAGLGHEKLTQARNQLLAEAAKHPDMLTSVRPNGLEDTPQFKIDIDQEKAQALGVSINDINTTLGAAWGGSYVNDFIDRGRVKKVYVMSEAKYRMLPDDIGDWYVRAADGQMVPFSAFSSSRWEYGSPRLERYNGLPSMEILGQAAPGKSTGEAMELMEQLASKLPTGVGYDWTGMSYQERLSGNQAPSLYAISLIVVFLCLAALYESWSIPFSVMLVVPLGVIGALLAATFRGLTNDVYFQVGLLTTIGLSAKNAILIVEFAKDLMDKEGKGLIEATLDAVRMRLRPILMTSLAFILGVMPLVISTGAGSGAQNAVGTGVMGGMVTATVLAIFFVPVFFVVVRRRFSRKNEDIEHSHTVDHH
# Description: For emulation of cell membrane leakage, bacterial cells were resuspended in deionized water. Ethidium bromide was added (20 μg/ml) and the change of fluorescence intensity was recorded on Fluorat-02-Panorama. For detecting of the accumulation of ethidium bromide, SkQ1 was added to a concentration of 50 μM.
# To confirm whether AcrAB-To1C is the appropriate transporter, we used a test based on the measurement of ethidium bromide leakage through intact bacterial membranes. […] Bacterial cells were prepared and resuspended in PBS. For emulation of cell membrane leakage bacterial cells were resuspended in deionized water (Milli-Q water purification system, EMD Millipore, Billerica, Mass.). Ethidium bromide was added (20 μg/ml) and the change of fluorescence intensity was recorded on Fluorat-02-Panorama (Lumex Instruments, Russia) spectrofluorometer. For increasing the accumulation of ethidium bromide, SkQ1 was added to reach a concentration of 50 μM. […] We observed ethidium bromide accumulation when ethidium bromide concentration was 40-times less than MIC for E. coli cells that only can be the result of collateral action of SkQ1 and ethidium bromide as substrates for AcrAB-To1C transporter.
compound,measurement,setting,value
CC1=CC(=O)C(CCCCCCCCCC[P+](c2ccccc2)(c2ccccc2)c2ccccc2)=CC1=O [SkQT-para],antimicrobial activity (growth inhibition),Bacillus subtilis cells,have antimicrobial activity
"CCCCCCCC[P+](c1ccccc1)(c1ccccc1)c1ccccc1 [C8TPP, octyltriphenylphosphonium]",antimicrobial activity (growth inhibition),ΔTolC (JW5503); To1C-deletion mutant,have antimicrobial activity
same,antimicrobial activity (growth inhibition),Bacillus subtilis cells,have antimicrobial activity
CC1=C(C)C(=O)C(CCCCCCCCCC[P+](c2ccccc2)(c2ccccc2)c2ccccc2)=C(C)C1=O [SkQ3],antimicrobial activity (growth inhibition),Bacillus subtilis cells,have antimicrobial activity
CC1=C(C)C(=O)C(CCCCC[P+](c2ccccc2)(c2ccccc2)c2ccccc2)=CC1=O [SkQ5],antimicrobial activity (growth inhibition),Bacillus subtilis cells,have antimicrobial activity
"CC1=C(C)C(=O)C(CCCCCCCCCC[P+](c2ccccc2)(c2ccccc2)c2ccccc2)=CC1=O [SkQ1, plastoquinonildecyltriphenylphosphonium]",resistance of cells (survival) under overexpression of MDR pump genes,[1],did not observe any effect of MDR overexpression
same,inhibition of glucose-induced R6G efflux from yeast cells,[2],much more efficient
same,inhibition of glucose-induced R6G efflux from yeast cells pretreated with NaN3,[2]; cells pretreated with 10 mM NaN3,inhibits glucose-induced R6G efflux
same,MBC,"ΔTolC (JW5503); Escherichia coli, read-out: minimal bactericidal concentration",~2 µM
same,IMPOSSIBILITY OF GROWTH,ΔTolC (JW5503); 5 μM,YES
same,IMPOSSIBILITY OF GROWTH,ΔTolC (JW5503); 30 μM,YES
same,IMPOSSIBILITY OF GROWTH,ΔAcrA (JW0452); 5 μM,YES
same,IMPOSSIBILITY OF GROWTH,ΔAcrA (JW0452); 30 μM,YES
same,growth inhibition at 1 μM,E. coli; 1 μM SkQ1,did not inhibit significantly growth
same,MIC,"E. coli; Escherichia coli, LB media, 37° C., read-out: minimal inhibitory concentration (MIC)",50 µM
same,antimicrobial activity (growth inhibition),E. coli; gram-negative,mild antimicrobial activity
same,MIC,"Bacillus subtilis cells; Bacillus subtilis, LB media, 37° C., read-out: minimal inhibitory concentration (MIC)",1 µM
same,antimicrobial activity (growth inhibition),Bacillus subtilis cells,strong antimicrobial activity
same,IMPOSSIBILITY OF GROWTH,ΔAcrB (JW0451); 5 μM,YES
same,IMPOSSIBILITY OF GROWTH,ΔAcrB (JW0451); 30 μM,YES
same,ethidium bromide leakage through bacterial membranes (accumulation),AcrAB-To1C transporter,comparable to ethidium bromide leakage during osmotic shock
same,substrate of AcrAB-To1C transporter,AcrAB-To1C transporter,is a substrate for AcrAB-To1C transporter
